Assay results published in article PMC4684791 (Bioorganic & medicinal chemistry letters, 2015).

Experiment: Microsomal stability assay
Assay type: in vitro ADME, rat

Stability κ (decay constant, slope of log concentration vs time profile) (rat liver microsome, t1/2=ln2/κ): 0.116 min^−1
half-life (rat, liver microsomes): 5.99 min
SMILES: COc1cc(NC(=O)c2ccccn2)ccc1Cl [Compound 2, ML128]
